The numbers were not newly measured in patent US6366801B1, “Pharmaceutically enhanced low-energy radiosurgery” (Sirius Medicine, LLC, priority 1997, dated 2002), which cites them from elsewhere.

Series [1] has as its system lymphocytes. Conditions: iodine with low-energy photons, lymphocytes (Santos Mello et al.).
The test system of series [2] is cells in vitro. Conditions: iodine concentration of 50 mg/ml, cells in vitro (Dawson et al.).
Series [3] has as its system brain tumors. Conditions: low-energy x-rays and iodine, brain tumors in rabbits (Iwamoto et al.).

Take `II` [iodine]: the dose enhancement entry in series [1] is given as “up to 3”; in series [3], “about 30%”. The “effect on radiation damage to cells” value in series [2] was “radiation enhancement of cell damage”.
